Reference: ChEMBL document CHEMBL1821602, “The Use of 3,5,4'-Tri-O-acetylresveratrol as a Potential Pro-drug for Resveratrol Protects Mice from γ-Irradiation-Induced Death” (ACS Med Chem Lett, 2011)
The source made the active and inactive calls. No cut-off for these calls is given here.

Legend:
[1] = organism: Mus musculus; assay: Radioprotective activity against 0 to 7 Gy gamma radiation-induced death in mouse 32Dcl3 cells at 10 uM treated 1 hr prior to irradiation after 7 days by microscopy; assay type: functional, cell-based
[2] = Stability of the compound assessed as half life; assay type: physicochemical
[3] = system: Mus musculus; assay: Radioprotective activity against 9.75 Gy gamma radiation-induced death in C57BL/6NHsd mouse assessed as survival rate at 10 mg/kg, ip administered 10 mins prior to irradiation; assay type: functional
[4] = system: Mus musculus; assay: Radioprotective activity against 9.75 Gy gamma radiation-induced death in C57BL/6NHsd mouse assessed as increase in survival rate at 1 mg/kg, ip administered 10 mins prior to irradiation; assay type: functional, organism-based; parameters: dose 1 mg/kg
[5] = system: Mus musculus; assay: Radioprotective activity against 9.75 Gy gamma radiation-induced death in C57BL/6NHsd mouse assessed as increase in survival rate at 25 mg/kg, ip administered 10 mins after irradiation daily for 4 days; assay type: functional, organism-based; parameters: dose 25 mg/kg
[6] = system: Serum; assay: Metabolic stability in mouse serum up to 27 hrs by HPLC analysis; assay type: ADME, cell-free
[7] = system: Serum; assay: Metabolic stability in mouse serum assessed as hydrolysis to resveratrol with in 20 secs by HPLC analysis; assay type: ADME, cell-free; settings: 20 s
[8] = Metabolic stability in mouse serum assessed as half life in presence of 1:1:8 mixture of EtOH/Cremophor EL/H2O by HPLC analysis; assay type: ADME, cell-free

| Compound | Activity [1] | half-life [2] [min] | Activity [3] | Activity [4] | Activity [5] | Stability [6] | Activity ([3]; route intraperitoneal) [%] | Stability [7] | half-life [8] [min] |
| --- | --- | --- | --- | --- | --- | --- | --- | --- | --- |
| CCCOC(=O)c1cc(O)c(O)c(O)c1 | inactive | – | – | – | – | – | – | – | – |
| O=C(O[C@@H]1Cc2c(O)cc(O)cc2O[C@H]1c1ccc(O)c(O)c1)c1cc(O)c(O)c(O)c1 | inactive | – | – | – | – | – | – | – | – |
| Oc1ccc(/C=C/c2cc(O)cc(O)c2)cc1 [RESVERATROL] | Active | 8 | inactive | inactive | inactive | Stable | – | – | – |
| CC(=O)Oc1ccc(/C=C/c2cc(OC(C)=O)cc(OC(C)=O)c2)cc1 [TRIACETYLRESVERATROL] | – | – | – | inactive | inactive | – | 80 | Unstable | 48 |
